What was measured:
Type in all cases: functional
HCC 2998 = experiment: Growth inhibition of human HCC2998 cells assessed as cell growth at 10 uM incubated for 48 hrs by sulforhodamine B assay relative to control; settings: HCC 2998, 48 h, read-out: Activity
SK-MEL-5 = experiment: Growth inhibition of human SK-MEL-5 cells assessed as cell growth at 10 uM incubated for 48 hrs by sulforhodamine B assay relative to control; settings: SK-MEL-5, 48 h, read-out: Activity
MDA-MB-435 = experiment: Growth inhibition of human MDA-MB-435 cells assessed as cell growth at 10 uM incubated for 48 hrs by sulforhodamine B assay relative to control; settings: MDA-MB-435, 48 h, read-out: Activity
MDA-MB-468 = experiment: Growth inhibition of human MDA-MB-468 cells assessed as cell growth at 10 uM incubated for 48 hrs by sulforhodamine B assay relative to control; settings: MDA-MB-468, 48 h, read-out: Activity
A549 = experiment: Growth inhibition of human A549/ATCC cells assessed as cell growth at 10 uM incubated for 48 hrs by sulforhodamine B assay relative to control; settings: A549, 48 h, read-out: Activity
RXF 393 = experiment: Growth inhibition of human RXF393 cells assessed as cell growth at 10 uM incubated for 48 hrs by sulforhodamine B assay relative to control; settings: RXF 393, 48 h, read-out: Activity
ACHN = experiment: Growth inhibition of human ACHN cells assessed as cell growth at 10 uM incubated for 48 hrs by sulforhodamine B assay relative to control; settings: read-out: Activity
NCI-H460 = experiment: Growth inhibition of human NCI-H460 cells assessed as cell growth at 10 uM incubated for 48 hrs by sulforhodamine B assay relative to control; settings: NCI-H460, 48 h, read-out: Activity
NCI-H226 = experiment: Growth inhibition of human NCI-H226 cells assessed as cell growth at 10 uM incubated for 48 hrs by sulforhodamine B assay relative to control; settings: NCI-H226, 48 h, read-out: Activity
LOX IMVI = experiment: Growth inhibition of human LOXIMVI cells assessed as cell growth at 10 uM incubated for 48 hrs by sulforhodamine B assay relative to control; settings: read-out: Activity
SR = experiment: Growth inhibition of human SR cells assessed as cell growth at 10 uM incubated for 48 hrs by sulforhodamine B assay relative to control; settings: read-out: Activity
A498 = experiment: Growth inhibition of human A498 cells assessed as cell growth at 10 uM incubated for 48 hrs by sulforhodamine B assay relative to control; settings: A498, 48 h, read-out: Activity
PC-3 = experiment: Growth inhibition of human PC3 cells assessed as cell growth at 10 uM incubated for 48 hrs by sulforhodamine B assay relative to control; settings: PC-3, 48 h, read-out: Activity
CAKI-1 = experiment: Growth inhibition of human Caki1 cells assessed as cell growth at 10 uM incubated for 48 hrs by sulforhodamine B assay relative to control; settings: CAKI-1, 48 h, read-out: Activity
HCT-116 = experiment: Growth inhibition of human HCT116 cells assessed as cell growth at 10 uM incubated for 48 hrs by sulforhodamine B assay relative to control; settings: HCT-116, 48 h, read-out: Activity
BT-549 = experiment: Growth inhibition of human BT549 cells assessed as cell growth at 10 uM incubated for 48 hrs by sulforhodamine B assay relative to control; settings: BT-549, 48 h, read-out: Activity
SF-295 = experiment: Growth inhibition of human SF295 cells assessed as cell growth at 10 uM incubated for 48 hrs by sulforhodamine B assay relative to control; settings: SF-295, 48 h, read-out: Activity
T47D = experiment: Growth inhibition of human T47D cells assessed as cell growth at 10 uM incubated for 48 hrs by sulforhodamine B assay relative to control; settings: read-out: Activity
SF-539 = experiment: Growth inhibition of human SF539 cells assessed as cell growth at 10 uM incubated for 48 hrs by sulforhodamine B assay relative to control; settings: SF-539, 48 h, read-out: Activity
SK-MEL-28 = experiment: Growth inhibition of human SK-MEL-28 cells assessed as cell growth at 10 uM incubated for 48 hrs by sulforhodamine B assay relative to control; settings: SK-MEL-28, 48 h, read-out: Activity
HL-60(TB) = experiment: Growth inhibition of human HL-60(TB) cells assessed as cell growth at 10 uM incubated for 48 hrs by sulforhodamine B assay relative to control; settings: HL-60, 48 h, read-out: Activity
MOLT-4 = experiment: Growth inhibition of human MOLT4 cells assessed as cell growth at 10 uM incubated for 48 hrs by sulforhodamine B assay relative to control; settings: MOLT-4, 48 h, read-out: Activity
M14 = experiment: Growth inhibition of human M14 cells assessed as cell growth at 10 uM incubated for 48 hrs by sulforhodamine B assay relative to control; settings: M14, 48 h, read-out: Activity
SNB-19 = experiment: Growth inhibition of human SNB19 cells assessed as cell growth at 10 uM incubated for 48 hrs by sulforhodamine B assay relative to control; settings: SNB-19, 48 h, read-out: Activity
NCI-H322M = experiment: Growth inhibition of human NCI-H322M cells assessed as cell growth at 10 uM incubated for 48 hrs by sulforhodamine B assay relative to control; settings: read-out: Activity
UO-31 = experiment: Growth inhibition of human UO31 cells assessed as cell growth at 10 uM incubated for 48 hrs by sulforhodamine B assay relative to control; settings: UO-31, 48 h, read-out: Activity
KM12 = experiment: Growth inhibition of human KM12 cells assessed as cell growth at 10 uM incubated for 48 hrs by sulforhodamine B assay relative to control; settings: KM12, 48 h, read-out: Activity
SNB-75 = experiment: Growth inhibition of human SNB75 cells assessed as cell growth at 10 uM incubated for 48 hrs by sulforhodamine B assay relative to control; settings: SNB-75, 48 h, read-out: Activity
786-0 = experiment: Growth inhibition of human 786-0 cells assessed as cell growth at 10 uM incubated for 48 hrs by sulforhodamine B assay relative to control; settings: 786-0, 48 h, read-out: Activity
CCRF-CEM = experiment: Growth inhibition of human CCRF-CEM cells assessed as cell growth at 10 uM incubated for 48 hrs by sulforhodamine B assay relative to control; settings: read-out: Activity
OVCAR-5 = experiment: Growth inhibition of human OVCAR5 cells assessed as cell growth at 10 uM incubated for 48 hrs by sulforhodamine B assay relative to control; settings: OVCAR-5, 48 h, read-out: Activity
UACC-257 = experiment: Growth inhibition of human UACC257 cells assessed as cell growth at 10 uM incubated for 48 hrs by sulforhodamine B assay relative to control; settings: UACC-257, 48 h, read-out: Activity
MCF7 = experiment: Growth inhibition of human MCF7 cells assessed as cell growth at 10 uM incubated for 48 hrs by sulforhodamine B assay relative to control; settings: MCF7, 48 h, read-out: Activity

| Compound | growth at 10 µM (HCC 2998) [%] | growth at 10 µM (SK-MEL-5) [%] | growth at 10 µM (MDA-MB-435) [%] | growth at 10 µM (MDA-MB-468) [%] | growth at 10 µM (A549) [%] | growth at 10 µM (RXF 393) [%] | growth at 10 µM (ACHN) [%] | growth at 10 µM (NCI-H460) [%] | growth at 10 µM (NCI-H226) [%] | growth at 10 µM (LOX IMVI) [%] | growth at 10 µM (SR) [%] | growth at 10 µM (A498) [%] | growth at 10 µM (PC-3) [%] | growth at 10 µM (CAKI-1) [%] | growth at 10 µM (HCT-116) [%] | growth at 10 µM (BT-549) [%] | growth at 10 µM (SF-295) [%] | growth at 10 µM (T47D) [%] | growth at 10 µM (SF-539) [%] | growth at 10 µM (SK-MEL-28) [%] | also measured |
| --- | --- | --- | --- | --- | --- | --- | --- | --- | --- | --- | --- | --- | --- | --- | --- | --- | --- | --- | --- | --- | --- |
| O=C(Nc1cccc(-n2cc(-c3ccncc3)c(-c3cc(O)cc(Cl)c3)n2)c1)c1ccc(N2CCOCC2)c(C(F)(F)F)c1 | -3.65 | 32.2 | 23 | 26 | 9.62 | -45.6 | 20.7 | -26.1 | 94.7 | -48.7 | -12.4 | 72.7 | 19.1 | 14.8 | 12.7 | 52.2 | -35.4 | 29.3 | 2.4 | -52.4 | growth at 10 µM (HL-60(TB)): -46.4%; growth at 10 µM (MOLT-4): -29.7%; growth at 10 µM (M14): -20.7%; growth at 10 µM (SNB-19): 12.1%; growth at 10 µM (NCI-H322M): 43.5%; growth at 10 µM (UO-31): 3.98%; growth at 10 µM (KM12): 9.89%; growth at 10 µM (SNB-75): 23.1%; growth at 10 µM (786-0): 36.6%; growth at 10 µM (CCRF-CEM): 13.1%; growth at 10 µM (OVCAR-5): 81.4%; growth at 10 µM (UACC-257): 9.38%; growth at 10 µM (MCF7): 29.7% |
| COc1cc(Cl)cc(-c2nn(-c3cccc(NC(=O)c4cc(C(F)(F)F)cc(C(F)(F)F)c4)c3)cc2-c2ccncc2)c1 | 78.3 | 67.3 | 80 | 46.5 | 43.5 | 67.7 | 58.2 | 41 | 76 | 76.1 | 41 | -1.74 | 35.6 | 68.6 | 35.2 | 96.8 | 42.1 | 53.4 | 80 | 78.8 | growth at 10 µM (HL-60(TB)): 84.3%; growth at 10 µM (MOLT-4): 55.3%; growth at 10 µM (M14): 67.3%; growth at 10 µM (SNB-19): 86.4%; growth at 10 µM (NCI-H322M): 80.3%; growth at 10 µM (UO-31): 54.3%; growth at 10 µM (KM12): 55.5%; growth at 10 µM (SNB-75): 60.8%; growth at 10 µM (786-0): 80.2%; growth at 10 µM (CCRF-CEM): 57.1%; growth at 10 µM (OVCAR-5): 83%; growth at 10 µM (UACC-257): 79.3%; growth at 10 µM (MCF7): 57.8% |
| COc1cc(Cl)cc(-c2nn(-c3cccc(NC(=O)Nc4cc(C(F)(F)F)cc(C(F)(F)F)c4)c3)cc2-c2ccncc2)c1 | 9.5 | -79.4 | -19.4 | -2.95 | 5.14 | -29.2 | 10.3 | 0.24 | -5.97 | -24 | -37.9 | -21.6 | -6.27 | 8.99 | -4.6 | 6.61 | -43.2 | 6.56 | -17.7 | 6.55 | growth at 10 µM (HL-60(TB)): -20.1%; growth at 10 µM (MOLT-4): -24.6%; growth at 10 µM (M14): 1.22%; growth at 10 µM (SNB-19): 26.1%; growth at 10 µM (NCI-H322M): 11%; growth at 10 µM (UO-31): -0.18%; growth at 10 µM (KM12): 12.2%; growth at 10 µM (SNB-75): 11.3%; growth at 10 µM (786-0): -26.9%; growth at 10 µM (CCRF-CEM): -22%; growth at 10 µM (OVCAR-5): 21.6%; growth at 10 µM (UACC-257): -25.6%; growth at 10 µM (MCF7): 3.81% |
| O=C(Nc1cccc(-n2cc(-c3ccncc3)c(-c3cc(O)cc(Cl)c3)n2)c1)c1cc(C(F)(F)F)cc(C(F)(F)F)c1 | 28.9 | 64.5 | 45.6 | 31.2 | 27.3 | -10.3 | 37.7 | 19.9 | 96 | 10.5 | 3.15 | 40.3 | 21.7 | 58.5 | 24.6 | 73.4 | 15 | 26.3 | 75.5 | 63.6 | growth at 10 µM (HL-60(TB)): 21.4%; growth at 10 µM (MOLT-4): 19.5%; growth at 10 µM (M14): 24.5%; growth at 10 µM (SNB-19): 63.1%; growth at 10 µM (NCI-H322M): 74.1%; growth at 10 µM (UO-31): 49.1%; growth at 10 µM (KM12): 21.2%; growth at 10 µM (SNB-75): 52.7%; growth at 10 µM (786-0): 55.1%; growth at 10 µM (CCRF-CEM): 26.9%; growth at 10 µM (OVCAR-5): 70.7%; growth at 10 µM (UACC-257): 71%; growth at 10 µM (MCF7): 23% |
| COc1cc(Cl)cc(-c2nn(-c3cccc(NC(=O)Nc4ccc(Cl)c(C(F)(F)F)c4)c3)cc2-c2ccncc2)c1 | 18.1 | -71.2 | -16.8 | -14.4 | 5.2 | -29.9 | 8.78 | 2.76 | -2.82 | 4.81 | -27.5 | -9.18 | -13 | 9.38 | 3.39 | 9.81 | -7.48 | 8.1 | -1.17 | 23.6 | growth at 10 µM (HL-60(TB)): -9.59%; growth at 10 µM (MOLT-4): -9.68%; growth at 10 µM (M14): 3.99%; growth at 10 µM (SNB-19): 28.1%; growth at 10 µM (NCI-H322M): 18.7%; growth at 10 µM (UO-31): 11.1%; growth at 10 µM (KM12): 9.1%; growth at 10 µM (SNB-75): 14.5%; growth at 10 µM (786-0): -4.76%; growth at 10 µM (CCRF-CEM): 1.88%; growth at 10 µM (OVCAR-5): 19.2%; growth at 10 µM (UACC-257): -25.9%; growth at 10 µM (MCF7): 2.57% |

— ChEMBL document CHEMBL4308841, “Synthesis, in vitro antiproliferative activity, and kinase inhibitory effects of pyrazole-containing diarylureas and diarylamides” (Eur J Med Chem, 2018)
